Data taken from article PMC3903478, “Expression and Properties of the Highly Alkalophilic Phenylalanine Ammonia-Lyase of Thermophilic Rubrobacter xylanophilus” (PLoS ONE, 2014).

Target: T1, RxPAL (phenylalanine ammonia-lyase of Rubrobacter xylanophilus) (Rubrobacter xylanophilus, UniProt Q1AV79)
T1 construct: gene Rxyl_1739; full length (540 AA), N-terminal His6-tag kept, codon-optimised synthetic gene in pBAD-HisB, expressed in E. coli TOP10, Ni-NTA purified; MIO prosthetic group formed from ASG
T1 sequence (Q1AV79 entry or part of it): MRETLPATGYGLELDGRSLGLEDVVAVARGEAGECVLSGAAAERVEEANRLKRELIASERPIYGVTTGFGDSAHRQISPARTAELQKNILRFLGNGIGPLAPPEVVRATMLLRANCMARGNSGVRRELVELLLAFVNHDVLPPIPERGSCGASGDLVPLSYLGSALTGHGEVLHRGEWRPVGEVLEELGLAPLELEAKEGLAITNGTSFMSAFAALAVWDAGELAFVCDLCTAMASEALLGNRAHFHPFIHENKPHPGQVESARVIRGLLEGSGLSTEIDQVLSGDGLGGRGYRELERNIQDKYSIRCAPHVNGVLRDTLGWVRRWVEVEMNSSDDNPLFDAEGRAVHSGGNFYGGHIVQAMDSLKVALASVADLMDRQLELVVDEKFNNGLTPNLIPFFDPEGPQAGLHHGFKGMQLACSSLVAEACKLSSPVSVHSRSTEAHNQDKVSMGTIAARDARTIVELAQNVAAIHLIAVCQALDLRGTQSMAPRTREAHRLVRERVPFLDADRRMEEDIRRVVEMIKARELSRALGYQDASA
Assay: UV spectrophotometry at […] nm, cinnamic acid formation
Format: biochemical
Conditions: 20 mM L-phenylalanine, 0.1 M buffers pH 4.0-12, ionic strength 250 mM

N[C@@H](Cc1ccccc1)C(=O)O [L-phenylalanine]
UV spectrophotometry at 290 nm, cinnamic acid formation: Progress of ammonia elimination from L-phenylalanine was monitored by detection of (E)-cinnamic acid production
